Patent US20240262812A1, “N-SUBSTITUTED PHENYLSULFONAMIDE COMPOUND AND USE THEREOF” (Shanghai Leado Pharmatech Co., Ltd., priority 2021, published 2024)

biological target: T1, mTRPA1 (Mus musculus, UniProt Q8BLA8); assay: IonWorks Barracuda (IWB) automated patch clamp, TRPA1 inhibitory activity; format: cell-based; conditions: HEK293 cells stably expressing mTRPA1, current induced by AITC, amplitude at +100 mV; read-out: IC50 (inhibition activity on TRPA1)
T1 construct: expressed in transfected cells
Experimental: In this example, the inhibitory activity of the compounds prepared in some examples of the present invention on transient receptor potential channel protein ankyrin 1 (TRPA1) was tested. Among them, compound of formula A (WO2010075353) was used as the positive control compound: […]
Test method using IonWorks Barracuda (IWB) automated patch clamp detection: HEK293 cells stably expressing mTRPA1 were placed in the T175 culture flask with DMEM medium containing 15 µg/mL Blasticidin S HCl, 200 µg/mL Hygromycin B and 10% FBS, and cultured in 37° C., 5% CO2 incubator. When the cell density reached about 80%, the culture medium was removed, washed once with phosphate buffered saline (PBS) without calcium and magnesium. 3 mL of Trypsin was added to digest for 2 min, 7 mL of culture solution was added to terminate the digestion. The cells were collected to 15 mL centrifuge tube and centrifuged at 800 rpm for 3 min. After the supernatant was removed, the cells were added to appropriate volume of extracellular fluid for re-suspending, and the cell density was controlled at 2-3×10^6/mL for use in IWB experiment. Extracellular fluid formulation (in mM): 140 NaCl, 5 KCl, 1 MgCl2, 10 HEPES, 0.5 EGTA, 10 Glucose (pH 7.4); intracellular fluid formulation (in mM): 140 CsCl, 10 HEPES, 5 EGTA, 0.1 CaCl2, 1 MgCl2 (pH 7.2). 28 mg/mL of amphotericin B was freshly prepared with DMSO on the day of experiment, and then final concentration of 0.1 mg/mL was prepared with intracellular fluid.
Population patch clamp (PPC) plate was used in IWB experiment. The entire detection process was automatically carried out by the instrument, that is, extracellular fluid was added into 384 wells of PPC plate, and after intracellular fluid was added under PPC plate (in plenum), 6 µL of cell fluid was added for sealing test, and finally the intracellular fluid in plenum was replaced with intracellular fluid containing amphotericin B to establish a whole-cell recording mode after perforating sealed cells. The sampling frequency for recording TPRA1 current was 10 kHz, the cells were clamped at 0 mV, the voltage stimulation command (channel protocol) was a ramp voltage from −100 mV to +100 mV for 300 ms. This voltage stimulation was applied every 10 s, mTRPA1 current was induced by 300 µM AITC.
Data recording and current amplitude measurement export were carried out by IWB software (version 2.5.3, Molecular Devices Corporation, Union City, CA). No statistics was recorded for holes with sealing impedance lower than 20 MΩ. The original current data was corrected by software for leak subtraction. TRPA1 current amplitude was measured at +100 mV. […] If IC50 value of HC030031 exceeded 3 times of the average IC50 value previously obtained on each plate, it would be re-tested. The dose-effect curve of compounds and IC50 were fitted and calculated by GraphPad Prism 5.02 (GraphPad Software, San Diego, CA).
Some compounds of the present invention were subjected to IC50 inhibition activity test using the IonWorks Barracuda (IWB) automated patch clamp detection method.

T1 sequence (Q8BLA8 whole entry): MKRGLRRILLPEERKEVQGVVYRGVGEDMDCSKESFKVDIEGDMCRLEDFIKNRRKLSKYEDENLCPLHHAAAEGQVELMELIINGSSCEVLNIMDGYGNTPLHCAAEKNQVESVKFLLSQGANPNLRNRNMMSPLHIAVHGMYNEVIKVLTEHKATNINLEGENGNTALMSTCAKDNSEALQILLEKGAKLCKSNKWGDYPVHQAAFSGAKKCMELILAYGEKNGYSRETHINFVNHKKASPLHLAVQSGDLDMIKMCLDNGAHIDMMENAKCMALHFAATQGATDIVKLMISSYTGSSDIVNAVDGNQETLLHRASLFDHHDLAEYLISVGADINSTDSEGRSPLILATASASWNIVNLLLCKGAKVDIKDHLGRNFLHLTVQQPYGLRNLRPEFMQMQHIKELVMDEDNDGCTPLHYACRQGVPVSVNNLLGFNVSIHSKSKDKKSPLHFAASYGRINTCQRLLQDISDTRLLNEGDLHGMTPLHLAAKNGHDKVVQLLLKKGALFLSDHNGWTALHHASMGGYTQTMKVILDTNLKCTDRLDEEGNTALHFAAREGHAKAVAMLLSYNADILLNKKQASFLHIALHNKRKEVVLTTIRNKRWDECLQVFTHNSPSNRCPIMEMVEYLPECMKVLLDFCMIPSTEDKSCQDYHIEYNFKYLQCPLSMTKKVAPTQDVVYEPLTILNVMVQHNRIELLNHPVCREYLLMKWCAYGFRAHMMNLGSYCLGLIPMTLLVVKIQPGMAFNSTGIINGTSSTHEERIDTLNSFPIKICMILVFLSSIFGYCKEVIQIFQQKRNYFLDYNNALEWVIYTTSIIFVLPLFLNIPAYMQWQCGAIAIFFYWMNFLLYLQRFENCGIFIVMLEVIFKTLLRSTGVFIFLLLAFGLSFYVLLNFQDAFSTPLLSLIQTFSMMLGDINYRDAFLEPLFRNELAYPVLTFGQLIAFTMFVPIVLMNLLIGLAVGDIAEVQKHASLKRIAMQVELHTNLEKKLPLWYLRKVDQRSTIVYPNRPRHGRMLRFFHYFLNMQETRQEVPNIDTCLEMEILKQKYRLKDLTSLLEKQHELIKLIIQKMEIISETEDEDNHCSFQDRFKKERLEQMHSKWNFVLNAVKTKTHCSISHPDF

Compound	IC50 [µM]
C[C@H]1CCCN1c1ccc(-c2csc(NC(=O)Cn3cnc4c3c(=O)n(C)c(=O)n4C)n2)cc1F [Compound of formula A, reference compound]	50 to 100
CNCc1ccc(-c2ccco2)c(NS(=O)(=O)c2ccc(Cl)cc2)c1 [IA-7]	5 to 10
CNCc1ccc(-c2cccs2)c(NS(=O)(=O)c2ccccc2)c1 [IA-46, N-(2-(thiophene-2-yl)-5-((methylamino)methyl)phenyl)benzenesulfonamide]	1 to 5
CNCc1ccc(-c2ccco2)c(NS(=O)(=O)c2ccc3ncsc3c2)c1 [IA-16, N-(2-(furan-2-yl)-5-((methylamino)methyl)phenyl)benzothiazole-6-sulfonamide]	5 to 10
CNCc1ccc(-c2c(C)noc2C)c(NS(=O)(=O)c2ccccc2)c1 [IA-53, N-(2-(3,5-dimethylisoxazol-4-yl)-5-((methylamino)methyl)phenyl)benzenesulfonamide]	5 to 10
CNCc1ccc(NS(=O)(=O)c2ccccc2)c(-c2ccco2)c1 [IA-26, N-(2-(furan-2-yl)-4-((methylaamino)methyl)phenyl)benzenesulfonamide]	1 to 5
CNCc1ccc(-c2ccco2)c(NS(=O)(=O)c2cccs2)c1 [IA-20, N-(2-(furan-2-yl)-5-((methylamino)methyl)phenyl)thiophene-2-sulfonamide]	1 to 5
CNCc1ccc(-c2cnn(C)c2)c(NS(=O)(=O)c2ccccc2)c1 [IA-56, N-(2-(1-methyl-1H-pyrazole-4-yl)-5-((methylamino)methyl)phenyl)benzenesulfonamide]	10 to 20
CNCc1ccc(-c2cn[nH]c2)c(NS(=O)(=O)c2ccccc2)c1 [IA-52]	20 to 50
CNCc1ccc(-c2ccco2)c(NS(=O)(=O)c2ccc(Cl)nc2)c1 [IA-18, 6-Chloro-N-(2-(furan-2-yl)-5-((methylamino)methyl)phenyl)pyridine-3-sulfonamide]	10 to 20
CNCc1ccc(-c2ccco2)c(NS(=O)(=O)c2ccccc2F)c1 [IA-2, 2-Fluoro-N-(2-(furan-2-yl)-5-((methylamino)methyl)phenyl)benzenesulfonamide]	1 to 5
NCc1ccc(NS(=O)(=O)c2ccc(F)cc2)c(-c2ccco2)c1 [ID-6, N-(4-(aminomethyl)-2-(furan-2-yl)phenyl)-4-fluorobenzenesulfonamide]	1 to 5
O=S(=O)(Nc1cc(CNCC(F)(F)F)ccc1-c1ccco1)c1ccccc1 [IA-62]	50 to 100
NC(Cc1ccccc1)c1ccc(NS(=O)(=O)c2ccccc2)c(-c2ccco2)c1 (stereo not shown) [IU-8, N-(4-(1-amino-2-phenylethyl)-2-(furan-2-yl)phenyl)benzenesulfonamide]	10 to 20
CNCCc1ccc(NS(=O)(=O)c2ccsc2)c(-c2ccco2)c1 [IS, N-(2-(furan-2-yl)-4-(2-(methylamino)ethyl)phenyl)thiophene-3-sulfonamide]	1 to 5
CNCc1ccc(-c2ccco2)c(NS(=O)(=O)c2ccc3ccccc3c2)c1 [IA-14, N-(2-(furan-2-yl)-5-((methylamino)methyl)phenyl)naphthalene-2-sulfonamide]	50 to 100

Compound	IC50 [µM]
NCc1ccc(-c2cc[nH]n2)c(NS(=O)(=O)c2ccsc2)c1 [ID-8, N-(5-(aminomethyl)-2-(1H-pyrazole-3-yl)phenyl)thiophene-3-sulfonamide]	1 to 5
CNCc1ccc(NS(=O)(=O)c2ccccc2)cc1-c1ccco1 [IA-36, N-(3-(furan-2-yl)-4-((methylamino)methyl)phenyl)benzenesulfonamide]	20 to 50
CNCc1ccc(NS(=O)(=O)c2ccc(F)cc2)c(-c2ccco2)c1 [IA-27, 4-Fluoro-N-(2-(furan-2-yl)-4-((methylamino)methyl)phenyl)benzenesulfonamide]	1 to 5
CNCc1ccc(-c2cccs2)c(NS(=O)(=O)c2ccsc2)c1 [IA-48, N-(2-(thiophene-2-yl)-5-((methylamino)methyl)phenyl)thiophene-3-sulfonamide]	1 to 5
O=S(=O)(Nc1cc(/C=N\O)ccc1-c1ccco1)c1ccccc1 [IC-1, N-(2-(furan-2-yl)-5-((oximido)methyl)phenyl)benzenesulfonamide]	20 to 50
CNCc1ccc(-c2cnc[nH]2)c(NS(=O)(=O)c2ccccc2)c1 [IA-61, N-(2-(1H-imidazol-5-yl)-5-((methylamino)methyl)phenyl)benzenesulfonamide]	10 to 20
CNCc1ccc(-c2ccco2)c(NS(=O)(=O)c2ccc(OC)cc2)c1 [IA-6, 4-Methoxy-N-(2-(furan-2-yl)-5-((methylamino)methyl)phenyl)benzenesulfonamide]	5 to 10
CNCc1ccc(NS(=O)(=O)c2cccs2)c(-c2ccco2)c1 [IA-29, N-(2-(furan-2-yl)-4-((methylamino)methyl)phenyl)thiophene-2-sulfonamide]	< 1
O=S(=O)(Nc1ccc(CNC2CCC2)cc1-c1ccco1)c1ccsc1 [IA-34, N-(4-((cyclobutylamino)methyl)-2-(furan-2-yl)phenyl)thiophene-3-sulfonamide]	1 to 5
CNCc1ccc(-c2c(C)n[nH]c2C)c(NS(=O)(=O)c2ccccc2)c1 [IA-58, N-(2-(3,5-dimethyl-1H-pyrazole-4-yl)-5-((methylamino)methyl)phenyl)benzenesulfonamide]	50 to 100
NCc1ccc(NS(=O)(=O)c2ccccc2)c(-c2ccco2)c1 [ID-4, N-(4-(aminomethyl)-2-(furan-2-yl)phenyl)benzenesulfonamide]	1 to 5
CNCc1ccc(-c2ccco2)c(NS(=O)(=O)c2ccc(C(F)(F)F)cc2)c1 [IA-13, 4-Trifluoromethyl-N-(2-(furan-2-yl)-5-((methylamino)methyl)phenyl)benzenesulfonamide]	10 to 20
CNCc1ccc(-c2ccco2)c(NS(=O)(=O)c2cccc(F)c2)c1 [IA-3, 3-Fluoro-N-(2-(furan-2-yl)-5-((methylamino)methyl)phenyl)benzenesulfonamide]	1 to 5
CNCc1ccc(-c2ccco2)c(NS(=O)(=O)c2ccc(Br)s2)c1 [IA-23, 5-Bromo-N-(2-(furan-2-yl)-5-((methylamino)methyl)phenyl)thiophene-2-sulfonamide]	10 to 20
CNCc1ccc(-c2ccco2)c(NS(=O)(=O)c2ccccc2)c1 [IA-4, N-(2-(furan-2-yl)-5-((methylamino)methyl)phenyl)benzenesulfonamide]	1 to 5

Results, then the molecule that gave them:

IC50 [µM]	Compound
1 to 5	CNC(C)c1ccc(NS(=O)(=O)c2ccccc2)c(-c2ccco2)c1 (stereo not shown) [IV-1, N-(2-(furan-2-yl)-4-(1-(methylamino)ethyl)phenyl)benzenesulfonamide]
< 1	NC(c1ccc(NS(=O)(=O)c2ccccc2)c(-c2ccco2)c1)C1CC1 (stereo not shown) [IU-6, N-(4-(amino(cyclopropyl)methyl)-2-(furan-2-yl)phenyl)benzenesulfonamide]
1 to 5	CC(N)c1ccc(N(C)S(=O)(=O)c2ccccc2)c(-c2ccco2)c1 (stereo not shown) [IU-1]
< 1	CCCC(N)c1ccc(NS(=O)(=O)c2ccccc2)c(-c2ccco2)c1 (stereo not shown) [IU-4, N-(4-(1-aminobutyl)-2-(furan-2-yl)phenyl)benzenesulfonamide]
1 to 5	CNC(C)c1ccc(-c2ccco2)c(NS(=O)(=O)c2ccccc2)c1 (stereo not shown) [IV-2, N-(2-(furan-2-yl)-5-(1-(methylamino)ethyl)phenyl)benzenesulfonamide]
1 to 5	CN(C)Cc1ccc(NS(=O)(=O)c2ccsc2)c(-c2ccco2)c1 [IJ-1, N-(4-((dimethylamino)methyl)-2-(furan-2-yl)phenyl)thiophene-3-sulfonamide]
5 to 10	CNCc1ccc(-n2ccnn2)c(NS(=O)(=O)c2ccccc2)c1 [IQ-4, N-(5-((methylamino)methyl)-2-(1H-1,2,3-triazol-1-yl)phenyl)benzenesulfonamide]
1 to 5	CNCc1ccc(-n2nccn2)c(NS(=O)(=O)c2ccccc2)c1 [IQ-3, N-(5-((methylamino)methyl)-2-(2H-1,2,3-triazol-2-yl)phenyl)benzenesulfonamide]
1 to 5	NC(c1ccccc1)c1ccc(NS(=O)(=O)c2ccccc2)c(-c2ccco2)c1 (stereo not shown) [IU-7, N-(4-(amino(phenyl)methyl)-2-(furan-2-yl)phenyl)benzenesulfonamide]
